Values of other authors, collected in patent US20110257145A1, “METHOD OF TREATING NEUROLOGICAL DISEASES” (THE BOARD OF TRUSTEES OF THE UNIVERSITY OF ILLINOIS, priority 2008, published 2011).

Legend:
[1] = biological target: mouse PKCα (Mus musculus, UniProt P20444); conditions: PKC binding, value marked [52]; read-out: K1[nm] ± SEM; cited from earlier work
[2] = tested on: AD double-transgenic mouse; conditions: in vivo; cited from earlier work
[3] = tested on: fibroblasts from AD patients; conditions: sub-nanomolar concentrations; cited from earlier work

CCC/C=C/C=C/C(=O)O[C@H]1/C(=C/C(=O)OC)C[C@H]2C[C@H]([C@@H](C)O)OC(=O)C[C@H](O)C[C@@H]3C[C@H](OC(C)=O)C(C)(C)[C@](O)(C[C@@H]4C/C(=C/C(=O)OC)C[C@H](/C=C/C(C)(C)[C@]1(O)O2)O4)O3 [Bryostatin 1]
Ki [1]: 1.4 nM
behavioral outcome [2]: improved
brain Aβ40 [2]: decreased
brain Aβ42 [2]: decreased
rate of premature death [2]: ameliorated
secretion of the α-secretase product sAPPα [3]: dramatically enhances
